Experimental data from patent US5948796A, “Benzo[B]thiophene compounds, intermediates, formulations, and methods” (Eli Lilly and Company, priority 1997, dated 1999).
pIC50: −log10 of the molar value. Where a name gives a salt, the structure may show the parent alone.

Tests used:
Eosinophil peroxidase = assay: Uterine Eosinophil Peroxidase (EPO) Assay in ovariectomized rats; assay type: in vivo, female Sprague Dawley rats; details: daily for 4 days, OVX rats, * p < 0.05
Protocol: (§1) In the examples illustrating the methods, a post-menopausal model was used in which effects of different treatments upon circulating lipids were determined.
(§2) Seventy-five day old female Sprague Dawley rats (weight range of 200 to 225 g) are obtained from Charles River Laboratories (Portage, Mich.). The animals are either bilaterally ovariectomized (OVX) or exposed to a Sham surgical procedure at Charles River Laboratories, and then shipped after one week. Upon arrival, they are housed in metal hanging cages in groups of 3 or 4 per cage and have ad libitum access to food (calcium content approximately 0.5%) and water for one week. Room temperature is maintained at 22.2°±1.7° C. with a minimum relative humidity of 40%. The photoperiod in the room is 12 hours light and 12 hours dark.
(§3) Dosing Regimen Tissue Collection. After a one week acclimation period (therefore, two weeks post-OVX) daily dosing with test compound is initiated. 17α-ethynyl estradiol or the test compound are given orally, unless otherwise stated, as a suspension in 1% carboxymethylcellulose or dissolved in 20% cyclodextrin. Animals are dosed daily for 4 days. Following the dosing regimen, animals are weighed and anesthetized with a ketamine: Xylazine (2:1, V:V) mixture and a blood sample is collected by cardiac puncture. The animals are then sacrificed by asphyxiation with CO2, the uterus is removed through a midline incision, and a wet uterine weight is determined.
Uterine Eosinophil Peroxidase (EPO) Assay. Uteri are kept at 4° C. until time of enzymatic analysis. The uteri are then homogenized in 50 volumes of 50 mM Tris buffer (pH-8.0) containing 0.005% Triton X-100. Upon addition of 0.01% hydrogen peroxide and 10 mM O-phenylenediamine (final concentrations) in Tris buffer, increase in absorbance is monitored for one minute at 450 nm. The presence of eosonophils in the uterus is an indication of estrogenic activity of a compound. The maximal velocity of a 15 second interval is determined over the initial, linear portion of the reaction curve.
(§4) In accordance with the above procedures, compounds of the present invention and ethynyl estradiol (EE2) in 20% hydroxypropyl β-cyclodextrin are orally administered to test animals.

serum cholesterol = assay: Cholesterol Analysis (serum cholesterol in ovariectomized rats); assay type: in vivo, female Sprague Dawley rats; details: daily for 4 days, OVX rats, * p < 0.05
Protocol: as §1, §2, §3
Cholesterol Analysis. Blood samples are allowed to clot at ambient temperature for 2 hours, and serum is obtained following centrifugation for 10 minutes at 3000 rpm. Serum cholesterol is determined using a Boehringer Mannheim Diagnostics high performance cholesterol assay. Briefly, the cholesterol is oxidized to cholest-4-en-3-one and hydrogen peroxide. The hydrogen peroxide is then reacted with phenol and 4-aminophenazone in the presence of peroxidase to produce a p-quinone imine dye, which is read spectrophotemetrically at 500 nm. Cholesterol concentration is then calculated against a standard curve.
as §4

[1] = tested on: MCF-7 breast adenocarcinoma cells; assay: MCF-7 Proliferation Assay; assay type: cell-based; details: Homo sapiens, MCF7; MCF-7 cells; 48 hours; tritiated thymidine pulse 4 hours
Protocol: As evidence of the current invention treat estrogen dependent cancer, the following assay was performed.
MCF-7 Proliferation Assay
MCF-7 breast adenocarcinoma cells (ATCC HTB 22) were maintained in MEM (minimal essential medium, phenol red-free, Sigma, St. Louis, Mo.) supplemented with 10% fetal bovine serum (FBS) (V/V), L-glutamine (2 mM), sodium pyruvate (1 mM), HEPES {(N-[2-hydroxyethyl]piperazine-N'-[2-ethanesulfonic acid]10 mM}, non-essential amino acids and bovine insulin (1 ug/mL) (maintenance medium). Ten days prior to assay, MCF-7 cells were switched to maintenance medium supplemented with 10% dextran coated charcoal stripped fetal bovine serum (DCC-FBS) assay medium) in place of 10% FBS to deplete internal stores of steroids. MCF-7 cells were removed from maintenance flasks using cell dissociation medium [Ca++/Mg++ free HBSS (phenol red-free) supplemented with 10 mM HEPES and 2 mM EDTA]. Cells were washed twice with assay medium and adjusted to 80,000 cells/mL. Approximately […] (8,000 cells) were added to flat-bottom microculture wells (Costar 3596) and incubated at 37° C. in a 5% CO2 humidified incubator for 48 hours to allow for cell adherence and equilibration after transfer. […] Samples were counted by liquid scintillation using a Wallac BetaPlace β counter. […]

[2] = tested on: ovariectomized (OVX) female Sprague Dawley rats, uterus; assay: Uterine weight in ovariectomized rats (post-menopausal model); assay type: in vivo; details: daily for 4 days, * p < 0.05
Protocol: as §1, §2, §3, §4

In the case of `COc1ccc(-c2sc3cc(C)ccc3c2C(=O)c2ccc(OCCN3CCCCC3)cc2)cc1` [Example 1, [2-(4-Methoxyphenyl)-6-methylbenzo[b]thien-3-yl}[4-[2-(1-piperdinyl)ethoxy]phenyl]methanone Hydrochloride], the “Uterine EPO (Vmax)” value (Eosinophil peroxidase; 0.1 mg/kg PO) was 1.4, the “Uterine EPO (Vmax)” value (Eosinophil peroxidase; 1 mg/kg PO) was 1.6 and the “Uterine EPO (Vmax)” value (Eosinophil peroxidase; 10 mg/kg PO) was 5.2. The “Serum Cholesterol (% Dec.), decrease versus ovariectomized controls” value (serum cholesterol; 0.1 mg/kg PO) was -20.3%, the “Serum Cholesterol (% Dec.), decrease versus ovariectomized controls” value (serum cholesterol; 1 mg/kg PO) was 17.2% and the “Serum Cholesterol (% Dec.), decrease versus ovariectomized controls” value (serum cholesterol; 10 mg/kg PO) was 34.8%. The pIC50 [1] was 6.30, the “Uterine Wt. (% Inc.), % increase versus the ovariectomized controls” value ([2]; 0.1 mg/kg PO) was -11.4% and the “Uterine Wt. (% Inc.), % increase versus the ovariectomized controls” value ([2]; 1 mg/kg PO) was -4.6%. The “Uterine Wt. (% Inc.), % increase versus the ovariectomized controls” value ([2]; 10 mg/kg PO) was 2.1%.

In the case of `Cc1ccc2c(C(=O)c3ccc(OCCN4CCCCC4)cc3)c(-c3ccc(O)cc3)sc2c1` [Example 2, [2-(4-Hydroxyphenyl)-6-methylbenzo[b]thien-3-yl}[4-[2-(1-piperdinyl)ethoxy]phenyl]methanone Hydrochloride], the “Uterine EPO (Vmax)” value (Eosinophil peroxidase; 0.1 mg/kg PO) was 2.0, the “Uterine EPO (Vmax)” value (Eosinophil peroxidase; 1 mg/kg PO) was 2.8 and the “Uterine EPO (Vmax)” value (Eosinophil peroxidase; 10 mg/kg PO) was 2.9. For the same molecule, the “Serum Cholesterol (% Dec.), decrease versus ovariectomized controls” value (serum cholesterol; 0.1 mg/kg PO) was 16.9%, the “Serum Cholesterol (% Dec.), decrease versus ovariectomized controls” value (serum cholesterol; 1 mg/kg PO) was 33.8% and the “Serum Cholesterol (% Dec.), decrease versus ovariectomized controls” value (serum cholesterol; 10 mg/kg PO) was 21.6%. For the same molecule, the pIC50 [1] was 7.00, the “Uterine Wt. (% Inc.), % increase versus the ovariectomized controls” value ([2]; 0.1 mg/kg PO) was -9.0% and the “Uterine Wt. (% Inc.), % increase versus the ovariectomized controls” value ([2]; 1 mg/kg PO) was 23.9%. The “Uterine Wt. (% Inc.), % increase versus the ovariectomized controls” value ([2]; 10 mg/kg PO) was 29.0%.

With `C#C[C@]1(O)CC[C@H]2[C@@H]3CCc4cc(O)ccc4[C@H]3CC[C@@]21C` [EE2, 17α-ethynyl estradiol, reference compound] the “Uterine EPO (Vmax)” value (Eosinophil peroxidase; dose printed "0." mg/kg PO) was 142.4 and the “Uterine Wt. (% Inc.), % increase versus the ovariectomized controls” value ([2]; dose printed "0." mg/kg PO) was 171.2%.
